How the values were obtained:
[1] = test system: sera from four Rhesus Monkeys given live HIV-1; experiment: ELISA of sera from Rhesus monkeys given live HIV-1 for antibodies to p17 peptides (Figure 5); format: binding; settings: result in words
Excerpt: • Figure 1 is a schematic drawing illustrating the proposed orientation for the p17 gag protein of HIV; • Figure 2 is a chart depicting the primary amino acid sequences of HIV-1 p17 (strain HB10) and also of the p17 proteins of HIV-2 and SIV; • Figure 3 is another chart depicting the primary amino acid sequence of the peptides in p17; • Figure 4 is a graph plotting antibody titers of HIV p17 peptides in rabbits immunized with native HIV p17; and • Figure 5 is a bar graph illustrating the results of ELISA analysis of sera from 4 Rhesus monkeys exposed to live HIV antibodies to the p17 peptide fragments of this invention.
In another test, sera from four Rhesus Monkeys given live HIV-1 were also evaluated for antibodies to Peptides A, B, C, D and E and the results are shown in Figure 5. […] Sera from individuals who had been naturally exposed to the HIV virus and were seropositive for p17 were also evaluated.

[2] = test system: antibodies of a rabbit immunized with native (intact) HIV p17; experiment: Antibody titers to p17 peptides in a rabbit immunized with native HIV p17 (Figure 4); format: binding; settings: rabbit immunized with HPLC-purified native HIV p17, synthetic peptide analogs, result in words

Substance | antibody response [1] | antibody titers [2]
Peptide A: p17 gag HIV protein fragment, positions 1-32, formula (II); sequence only in image I00003 (GARASVLSGGELDRWEKIRLRPGGKKKYKLKH; Matrix protein p17; UniProt P04591 2-33, looked up, fragment) | strong antibody response in at least one of the challenged monkeys | 
Peptide B: p17 gag HIV protein fragment, positions 33-50, formula (III); sequence only in image I00004 (IVWASRELERFAVNPGLL; Matrix protein p17; UniProt P04591 34-51, looked up, fragment) | strong antibody response in at least one of the challenged monkeys | 
Peptide C: p17 gag HIV protein fragment, positions 51-84, formula (IV); sequence only in image I00005 (ETSEGCRQILGQLQPSLQTGSEELRSLYNTVATL; Matrix protein p17; UniProt P04591 52-85, looked up, fragment) | strong antibody response in at least one of the challenged monkeys | highest titers
